The values that follow come from patent US20240156764A1, “INHIBITION OF URACIL DNA GLYCOSYLASE IN THE OPEN CONFORMATION” (CASE WESTERN RESERVE UNIVERSITY, priority 2022, published 2024).

One test has as its target T1, human OGG1 protein (Homo sapiens, UniProt O15527).
T1 construct: purchased NEBiolabs (New England Biolabs)
As to the kind of experiment: Gel-based DNA cleavage assay with a single oxoG:C basepair. Format: biochemical. As to the method:
20% polyacrylamide nucleic acid urea gel electrophoresis was used to resolve the DNA bands at room temperature, 200 v for 50 min. Analysis and quantification of DNA cleavage were done as follows. A background subtraction step was included using the 23mer from the DNA only lane. […] B: Points on the plot were averaged from four different gels. The IC50 value was generated using Prism software version 8.4.3, non-linear fit, [inhibitor] vs. response (three parameters, R2=0.99) averaging points from four different gels. Y error bars represent the standard deviation from the mean. […] A single oxo-guanine: cytosine base pair DNA with a Cy3 fluorescent tag on the 3′ end was used (10 nM). D: The IC50 value was generated using Prism software version 8.4.3, non-linear fit, [inhibitor] vs. response (three parameters, R2=0.98) averaging points from three different gels.
Following pre-incubation occurred for 20 min at 37° C., 2 μL of U:A DNA (500 nM stock) was added to initiate the reaction, total reaction volume of 50 μL/well. Each plate was incubated for 120 min at 37° C. […] Gel data were analyzed using ImageJ software. […] Percent cleavage was calculated by using fluorescence intensity of the cleaved 23-mer DNA strand divided by the sum of the fluorescence bands (23mer+40mer DNA strands)*100. […]

Test [1] deals with uracil removal (U:G base pair) in MCF-7 cells. Description: Host-cell reactivation assay, uracil removal from reporter plasmid, MCF-7. Format: cell-based, human. As to the method: A: MCF-7 cells were seeded at 50,000 cells per well in a 12-well plate. B: HAP cells (wild type or UNG gene knockout) were seeded at 75,000 cells per well in a 6-well plate. […] After 24 hours, cells were dissociated by trypsinization and analyzed by flow cytometry using an Atune NxT flow cytometer. Gating and compensation were determined by transfection of single-color controls. Reporter expression was calculated for each dose of ATA as previously described in publications and normalized to DMSO treatment.
Panel A: 1.25 μM and panel B: 2.5 μM. Reporter expression was calculated for each dose of ATA as described in prior publications and normalized to DMSO treatment.
Removal of uracil in cells was measured using a reporter plasmid containing a dU:dG base pair (referred to as BFP_U), as described previously. […] The reciprocal of BFP_U reporter expression was calculated for each experimental condition. […] This creates a premature stop codon, completely abolishing fluorescence. Removal of thymidine followed by insertion of dC opposite dG restores reporter fluorescence.
Human breast cancer MCF-7 cells were seeded at 50,000 cells per well in a 12-well plate, while HAP cells (wild type or UNG knockout) were seeded at 75,000 cells per well in a 6-well plate. […] After 24 hours, cells were dissociated by trypsinization and analyzed by flow cytometry using an Atune NxT flow cytometer. […]

T1 sequence (O15527 whole entry): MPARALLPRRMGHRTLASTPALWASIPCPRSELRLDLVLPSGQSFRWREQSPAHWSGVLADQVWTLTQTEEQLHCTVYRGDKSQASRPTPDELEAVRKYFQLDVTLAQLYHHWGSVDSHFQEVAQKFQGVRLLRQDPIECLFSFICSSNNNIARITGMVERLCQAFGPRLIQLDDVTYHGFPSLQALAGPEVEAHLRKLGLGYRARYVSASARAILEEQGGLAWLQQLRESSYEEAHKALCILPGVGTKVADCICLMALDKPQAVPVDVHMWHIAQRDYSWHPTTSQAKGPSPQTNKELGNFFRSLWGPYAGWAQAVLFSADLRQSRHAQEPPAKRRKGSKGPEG

Take `O=C(O)C1=CC(=C(c2ccc(O)c(C(=O)O)c2)c2ccc(O)c(C(=O)O)c2)C=CC1=O` [ATA, aurintricarboxylic acid]: the “inhibitory effect on purified human OGG1” value against human OGG1 protein (OGG1 10 nM, compared with UDG) is reported as “lesser inhibitory effect”. Further, half-maximal inhibition at human OGG1 protein (dsDNA with single 8oxoG:C bp, gel-based) (IC50) required 4.5 µM. Moreover, the “uracil removal in MCF-7 cells” value in test [1] (ATA 2.5 μM, 24 hr) is “significantly inhibited uracil removal”. In test [1] (ATA up to 10 μM vs 2.5 μM), the “uracil removal in MCF-7 cells at increasing concentrations” value is “not statistically different from the 2.5 μM dose”.
